Test results as given in paper PMC8002512, “IRE1α Is a Therapeutic Target for Cystic Fibrosis Airway Inflammation” (International Journal of Molecular Sciences, 2021).

Biological target: T1, IRE1α (Homo sapiens, UniProt O75460)
T1 construct: gene ERN1; cytoplasmic portion, kinase and RNase domains, residues 547-977 of NP_001424, N-terminal His-tagged (Sf9)
Assay: TR-FRET (LanthaScreen) displacement of tracer […] from purified His-tagged IRE1α
Format: binding

T1 sequence (O75460 547-977): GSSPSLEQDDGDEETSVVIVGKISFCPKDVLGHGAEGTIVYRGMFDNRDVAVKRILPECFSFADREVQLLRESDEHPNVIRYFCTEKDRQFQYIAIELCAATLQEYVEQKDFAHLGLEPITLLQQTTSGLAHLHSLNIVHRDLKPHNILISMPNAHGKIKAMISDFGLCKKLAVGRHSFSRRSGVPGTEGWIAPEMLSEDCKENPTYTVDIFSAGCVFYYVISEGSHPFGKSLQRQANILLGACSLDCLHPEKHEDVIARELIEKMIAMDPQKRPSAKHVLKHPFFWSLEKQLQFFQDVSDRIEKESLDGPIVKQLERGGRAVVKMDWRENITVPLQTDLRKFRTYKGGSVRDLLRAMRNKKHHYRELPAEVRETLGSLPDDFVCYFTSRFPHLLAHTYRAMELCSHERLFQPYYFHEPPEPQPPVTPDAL

CC(C)(C)c1nc(-c2ccc(NC(=O)Nc3cccc(C(F)(F)F)c3)c3ccccc23)c2c(N)nccn12 [KIRA6]
Kd: 280 nM
